# pIC50: −log10 of the molar value.
# System: 926638-142-R-J1-PDC complex spheroid viability
# Experiment: Anticancer human tumor 926638-142-R-J1-PDC patient-derived endometrial carcinoma cell line growth inhibition [POLQ]
# Conditions: for pIC50: curve of first compound; for viability, T/C: stronger effect = lower value
# Outline: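 Three-cell-type spheroids modelling solid tumor plus stroma served as the readout system; POL inhibitors were tested individually and in combination, concentration ranges set by clinical Cmax where known.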
# [1] = second compound 0.0316 µM, first compound 0.0316 µM
# [2] = second compound 0.0316 µM, first compound 0.1 µM
# [3] = second compound 0.0316 µM, first compound 0.316 µM
# [4] = second compound 0.0316 µM, first compound 1 µM
# [5] = second compound 0.0316 µM, first compound 3.16 µM
# [6] = second compound 0.0316 µM, first compound 10 µM
# [7] = second compound 0.1 µM, first compound 0.0316 µM
# [8] = second compound 0.1 µM, first compound 0.1 µM
# [9] = second compound 0.1 µM, first compound 0.316 µM
# [10] = second compound 0.1 µM, first compound 1 µM
# [11] = second compound 0.1 µM, first compound 3.16 µM
# [12] = second compound 0.1 µM, first compound 10 µM
# [13] = second compound 0.316 µM, first compound 0.0316 µM
# [14] = second compound 0.316 µM, first compound 0.1 µM
# [15] = second compound 0.316 µM, first compound 0.316 µM
# [16] = second compound 0.316 µM, first compound 1 µM
# [17] = second compound 0.316 µM, first compound 3.16 µM
# [18] = second compound 0.316 µM, first compound 10 µM
# [19] = second compound 1 µM, first compound 0.0316 µM
# [20] = second compound 1 µM, first compound 0.1 µM
# [21] = second compound 1 µM, first compound 0.316 µM
# [22] = second compound 1 µM, first compound 1 µM
# [23] = second compound 1 µM, first compound 3.16 µM
# [24] = second compound 1 µM, first compound 10 µM
# [25] = second compound 3.16 µM, first compound 0.0316 µM
# [26] = second compound 3.16 µM, first compound 0.1 µM
# [27] = second compound 3.16 µM, first compound 0.316 µM
# [28] = second compound 3.16 µM, first compound 1 µM
# [29] = second compound 3.16 µM, first compound 3.16 µM
# [30] = second compound 3.16 µM, first compound 10 µM
# [31] = second compound 10 µM, first compound 0.0316 µM
# [32] = second compound 10 µM, first compound 0.1 µM
# [33] = second compound 10 µM, first compound 0.316 µM
# [34] = second compound 10 µM, first compound 1 µM
# [35] = second compound 10 µM, first compound 3.16 µM
# [36] = second compound 10 µM, first compound 10 µM
# 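Also: spheroids exposed to drugs for one week before readout.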
# 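For viability, T/C in this document: percent viability relative to DMSO vehicle control wells set as 100%.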
smiles,measurement,setting,value
COc1cc(C2c3cc4c(cc3C(OC3OC5COC(C)OC5C(O)C3O)C3COC(=O)C23)OCO4)cc(OC)c1O (stereo unspecified) + Nc1ccc(C#CCN(C(=O)Cc2ncc(C(F)(F)F)cc2C(F)(F)F)c2ccc(F)cc2)nn1,pIC50,second compound 0.0316 µM,< 5.00
same,pIC50,second compound 0.1 µM,< 5.00
same,pIC50,second compound 0.316 µM,< 5.00
same,pIC50,second compound 1 µM,< 5.00
same,pIC50,second compound 3.16 µM,< 5.00
same,pIC50,second compound 10 µM,< 5.00
same,"viability, T/C",[1],99.2%
same,"viability, T/C",[2],81.6%
same,"viability, T/C",[3],80.3%
same,"viability, T/C",[4],73.1%
same,"viability, T/C",[5],77.8%
same,"viability, T/C",[6],58.1%
same,"viability, T/C",[7],96.6%
same,"viability, T/C",[8],101%
same,"viability, T/C",[9],70.3%
same,"viability, T/C",[10],67.4%
same,"viability, T/C",[11],80%
same,"viability, T/C",[12],53.5%
same,"viability, T/C",[13],106%
same,"viability, T/C",[14],77.7%
same,"viability, T/C",[15],71.7%
same,"viability, T/C",[16],69.4%
same,"viability, T/C",[17],69.7%
same,"viability, T/C",[18],54%
same,"viability, T/C",[19],102%
same,"viability, T/C",[20],83.1%
same,"viability, T/C",[21],80.4%
same,"viability, T/C",[22],74.4%
same,"viability, T/C",[23],69.3%
same,"viability, T/C",[24],57%
same,"viability, T/C",[25],83.3%
same,"viability, T/C",[26],87.2%
same,"viability, T/C",[27],71.2%
same,"viability, T/C",[28],63.3%
same,"viability, T/C",[29],76.1%
same,"viability, T/C",[30],51%
same,"viability, T/C",[31],94.9%
same,"viability, T/C",[32],82.6%
same,"viability, T/C",[33],73.3%
same,"viability, T/C",[34],63%
same,"viability, T/C",[35],69%
same,"viability, T/C",[36],53.4%
Nc1ccn(C2OC(CO)C(O)C2(F)F)c(=O)n1 (stereo unspecified) + Nc1ccc(C#CCN(C(=O)Cc2ncc(C(F)(F)F)cc2C(F)(F)F)c2ccc(F)cc2)nn1,pIC50,second compound 0.0316 µM,5.97
same,pIC50,second compound 0.1 µM,6.17
same,pIC50,second compound 0.316 µM,6.02
same,pIC50,second compound 1 µM,6.15
same,pIC50,second compound 3.16 µM,6.35
same,pIC50,second compound 10 µM,5.62
same,"viability, T/C",[1],76.5%
same,"viability, T/C",[2],63.9%
same,"viability, T/C",[3],57%
same,"viability, T/C",[4],52.7%
same,"viability, T/C",[5],43.9%
same,"viability, T/C",[6],29.6%
same,"viability, T/C",[7],96.8%
same,"viability, T/C",[8],82.5%
same,"viability, T/C",[9],49.4%
same,"viability, T/C",[10],44.6%
same,"viability, T/C",[11],49.9%
same,"viability, T/C",[12],25.6%
same,"viability, T/C",[13],91.2%
same,"viability, T/C",[14],72%
same,"viability, T/C",[15],61.8%
same,"viability, T/C",[16],49.2%
same,"viability, T/C",[17],40.8%
same,"viability, T/C",[18],27%
same,"viability, T/C",[19],81.8%
same,"viability, T/C",[20],65.7%
same,"viability, T/C",[21],51.1%
same,"viability, T/C",[22],47.5%
same,"viability, T/C",[23],49.6%
same,"viability, T/C",[24],28.9%
same,"viability, T/C",[25],80%
same,"viability, T/C",[26],67.5%
same,"viability, T/C",[27],49.9%
same,"viability, T/C",[28],42.9%
same,"viability, T/C",[29],44.6%
same,"viability, T/C",[30],33.3%
same,"viability, T/C",[31],79.6%
same,"viability, T/C",[32],73.1%
same,"viability, T/C",[33],66.3%
same,"viability, T/C",[34],48%
same,"viability, T/C",[35],55.4%
same,"viability, T/C",[36],38.9%
O=c1[nH]cc(F)c(=O)[nH]1 + Nc1ccc(C#CCN(C(=O)Cc2ncc(C(F)(F)F)cc2C(F)(F)F)c2ccc(F)cc2)nn1,pIC50,second compound 0.0316 µM,< 5.00
same,pIC50,second compound 0.1 µM,< 5.00
same,pIC50,second compound 0.316 µM,< 5.00
same,pIC50,second compound 1 µM,< 5.00
same,pIC50,second compound 3.16 µM,< 5.00
same,pIC50,second compound 10 µM,< 5.00
same,"viability, T/C",[1],101%
same,"viability, T/C",[2],107%
same,"viability, T/C",[3],92.8%
same,"viability, T/C",[4],82.9%
same,"viability, T/C",[5],86.5%
same,"viability, T/C",[6],80.7%
same,"viability, T/C",[7],100%
same,"viability, T/C",[8],116%
same,"viability, T/C",[9],107%
same,"viability, T/C",[10],83.4%
same,"viability, T/C",[11],90.8%
same,"viability, T/C",[12],78.8%
same,"viability, T/C",[13],85.5%
same,"viability, T/C",[14],98.1%
same,"viability, T/C",[15],102%
same,"viability, T/C",[16],97.8%
same,"viability, T/C",[17],85.5%
same,"viability, T/C",[18],83%
same,"viability, T/C",[19],103%
same,"viability, T/C",[20],85%
same,"viability, T/C",[21],99.4%
same,"viability, T/C",[22],75.9%
same,"viability, T/C",[23],77.7%
same,"viability, T/C",[24],76.8%
same,"viability, T/C",[25],97.7%
same,"viability, T/C",[26],93.5%
same,"viability, T/C",[27],88.1%
same,"viability, T/C",[28],92.5%
same,"viability, T/C",[29],82.1%
same,"viability, T/C",[30],70.2%
same,"viability, T/C",[31],102%
same,"viability, T/C",[32],81%
same,"viability, T/C",[33],93.2%
same,"viability, T/C",[34],85.7%
same,"viability, T/C",[35],78.2%
same,"viability, T/C",[36],74.3%

# — PubChem BioAssay AID1963826 (Molecular Pharmacology Branch, DTP, NCI, 2024)
